This assay concerns the target T1, BTK (Homo sapiens, UniProt Q06187).
T1 construct: purchased Upstate 14-552
Put plainly: In vitro BTK kinase assay: BTK-POLYGAT-LS assay. It counts as biochemical. The following applies: 10 uM ATP, read-out: IC50 (10 uMATP).

T1 sequence (Q06187 whole entry): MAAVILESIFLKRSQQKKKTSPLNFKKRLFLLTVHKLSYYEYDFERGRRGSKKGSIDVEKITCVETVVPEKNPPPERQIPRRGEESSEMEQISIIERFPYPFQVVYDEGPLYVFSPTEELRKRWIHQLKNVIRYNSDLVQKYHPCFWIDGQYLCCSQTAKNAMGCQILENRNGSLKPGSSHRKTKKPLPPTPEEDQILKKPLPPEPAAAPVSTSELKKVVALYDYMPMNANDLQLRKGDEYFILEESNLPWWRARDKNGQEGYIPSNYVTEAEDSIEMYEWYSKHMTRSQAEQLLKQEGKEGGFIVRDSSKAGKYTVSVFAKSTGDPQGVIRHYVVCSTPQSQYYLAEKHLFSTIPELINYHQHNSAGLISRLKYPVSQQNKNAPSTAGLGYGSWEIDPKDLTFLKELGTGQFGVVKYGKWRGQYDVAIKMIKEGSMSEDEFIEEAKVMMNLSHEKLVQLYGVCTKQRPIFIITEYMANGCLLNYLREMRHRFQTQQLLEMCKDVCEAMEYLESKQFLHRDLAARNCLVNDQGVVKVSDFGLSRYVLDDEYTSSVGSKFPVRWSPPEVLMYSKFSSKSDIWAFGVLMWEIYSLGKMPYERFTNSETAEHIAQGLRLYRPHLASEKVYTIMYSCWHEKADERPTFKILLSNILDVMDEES

Turning to `CC(C)(C)c1ccc(C(=O)NC2CCCc3cc(-c4ncnc5[nH]ncc45)ccc32)nc1` (stereo not drawn) [Example I-131, N-(6-(1H-pyrazolo[3,4-d]pyrimidin-4-yl)-1,2,3,4-tetrahydronaphthalen-1-yl)-5-(tert-butyl)picolinamide], the IC50 fell in the range of 100 to 999 nM.
With `O=C(NC(CO)c1ccc(-c2ncnc3[nH]ncc23)cc1)c1cc2c(s1)CCCC2` (stereo not drawn) [Example I-132, N-(1-(4-(1H-pyrazolo[3,4-d]pyrimidin-4-yl)phenyl)-2-hydroxyethyl)-4,5,6,7-tetrahydrobenzo[b]thiophene-2-carboxamide] the figure was 10 to 99 nM; with `Cc1cc(-c2ncnc3nc(N4CCN(C)CC4)sc23)ccc1CNC(=O)c1cnc(C(C)(C)C)s1` [Example I-133, 2-(tert-butyl)-N-(2-methyl-4-(2-(4-methylpiperazin-1-yl)thiazolo[4,5-d]pyrimidin-7-yl)benzyl)thiazole-5-carboxamide], 10 to 99 nM; with `Cc1cc(-c2ncnc3cc[nH]c23)ccc1C(C)NC(=O)c1cnc(C(C)(C)C)s1` (stereo not drawn) [Example I-134, 2-(tert-butyl)-N-(1-(2-methyl-4-(5H-pyrrolo[3,2-d]pyrimidin-4-yl)phenyl)ethyl)thiazole-5-carboxamide], 10 to 99 nM.
Under `CC(NC(=O)c1cc2c(s1)CCCC2)c1ccc(-c2ncnc3[nH]ncc23)cc1C(F)(F)F` (stereo not drawn) [Example I-135, N-(1-(4-(1H-pyrazolo[3,4-d]pyrimidin-4-yl)-2-(trifluoromethyl)phenyl)ethyl)-4,5,6,7-tetrahydrobenzo[b]thiophene-2-carboxamide] stands 10 to 99 nM.
Under `CC1(C)CCc2nc(C(=O)NC3CCCc4cc(-c5ncnc6[nH]ncc56)ccc43)sc2C1` (stereo not drawn) [Example I-136, N-(6-(1H-pyrazolo[3,4-d]pyrimidin-4-yl)-1,2,3,4-tetrahydronaphthalen-1-yl)-6,6-dimethyl-4,5,6,7-tetrahydrobenzo[d]thiazole-2-carboxamide] stands 10 to 99 nM; under `O=C(NC1CCCc2cc(-c3ncnc4[nH]ncc34)ccc21)c1nc2c(s1)CCCC2` (stereo not drawn) [Example I-137, N-(6-(1H-pyrazolo[3,4-d]pyrimidin-4-yl)-1,2,3,4-tetrahydronaphthalen-1-yl)-4,5,6,7-tetrahydrobenzo[d]thiazole-2-carboxamide], 10 to 99 nM.
For `O=c1c2c(F)cc(C3CC3)cc2ccn1C1CCCc2cc(-c3ncnc4[nH]ncc34)ccc21` (stereo not drawn) [Example I-138, 2-(6-(1H-pyrazolo[3,4-d]pyrimidin-4-yl)-1,2,3,4-tetrahydronaphthalen-1-yl)-6-cyclopropyl-8-fluoroisoquinolin-1(2H)-one], the concentration for half-maximal inhibition (IC50) is 10 to 99 nM.
As for `Cc1cc(-c2ccnc3[nH]ncc23)cnc1CNC(=O)c1cc2c(s1)CCCC2` [Example I-139, N-((3-methyl-5-(1H-pyrazolo[3,4-b]pyridin-4-yl)pyridin-2-yl)methyl)-4,5,6,7-tetrahydrobenzo[b]thiophene-2-carboxamide], the IC50 is 10 to 99 nM.
With `Cc1cc(-c2ncnc3cc[nH]c23)cnc1CNC(=O)c1cc2c(s1)CCCC2` [Example I-140, N-((3-methyl-5-(5H-pyrrolo[3,2-d]pyrimidin-4-yl)pyridin-2-yl)methyl)-4,5,6,7-tetrahydrobenzo[b]thiophene-2-carboxamide] the figure was 100 to 999 nM; with `Cc1cc(-c2ncnc3sc4c(c23)CCC4)ccc1CNC(=O)c1cnc(C(C)(C)C)s1` [Example I-141], 100 to 999 nM.
With `CC(C)(C)c1ccc(C(=O)NC2CCCc3cc(-c4ncnc5[nH]ncc45)ccc32)cn1` (stereo not drawn) [Example I-142, N-(6-(1H-pyrazolo[3,4-d]pyrimidin-4-yl)-1,2,3,4-tetrahydronaphthalen-1-yl)-6-(tert-butyl)nicotinamide], the IC50 is 100 to 999 nM.
Under `CCC(NC(=O)c1cc2c(s1)CCCC2)c1ccc(-c2ncnc3[nH]ncc23)cc1` (stereo not drawn) [Example I-143, N-(1-(4-(1H-pyrazolo[3,4-d]pyrimidin-4-yl)phenyl)propyl)-4,5,6,7-tetrahydrobenzo[b]thiophene-2-carboxamide] stands 100 to 999 nM; under `CC(C)(C)c1ncc(C(=O)N[C@@H]2CCCc3cc(-c4ccnc5[nH]ncc45)cnc32)s1` [Example I-144, (R)—N-(3-(1H-pyrazolo[3,4-b]pyridin-4-yl)-5,6,7,8-tetrahydroquinolin-8-yl)-2-(tert-butyl)thiazole-5-carboxamide], 100 to 999 nM.
For the compound `CC(NC(=O)c1nc2c(s1)CCCC2)c1ccc(-c2ncnc3[nH]ncc23)cc1C(F)(F)F` (stereo not drawn) [Example I-145, N-(1-(4-(1H-pyrazolo[3,4-d]pyrimidin-4-yl)-2-(trifluoromethyl)phenyl)ethyl)-4,5,6,7-tetrahydrobenzo[d]thiazole-2-carboxamide], the 50% inhibitory concentration (IC50) is 100 to 999 nM.
With `O=C(NC1CCCc2cc(-c3ncnc4[nH]ncc34)ccc21)c1ccc(C(F)(F)F)cn1` (stereo not drawn) [Example I-147, N-(6-(1H-pyrazolo[3,4-d]pyrimidin-4-yl)-1,2,3,4-tetrahydronaphthalen-1-yl)-5-(trifluoromethyl)picolinamide] the figure was 1000 to 10000 nM; with `CC(C)C(NC(=O)c1cc2c(s1)CCCC2)c1ccc(-c2ncnc3[nH]ncc23)cc1` (stereo not drawn) [Example I-149, N-(1-(4-(1H-pyrazolo[3,4-d]pyrimidin-4-yl)phenyl)-2-methylpropyl)-4,5,6,7-tetrahydrobenzo[b]thiophene-2-carboxamide], 1000 to 10000 nM; with `CC(C)(C)c1ccnc(C(=O)NC2CCCc3cc(-c4ncnc5[nH]ncc45)ccc32)c1` (stereo not drawn) [Example I-150, N-(6-(1H-pyrazolo[3,4-d]pyrimidin-4-yl)-1,2,3,4-tetrahydronaphthalen-1-yl)-4-(tert-butyl)picolinamide], 1000 to 10000 nM.
Under `NC(=O)C(NC(=O)c1cc2c(s1)CCCC2)c1ccc(-c2ncnc3[nH]ncc23)cc1` (stereo not drawn) [Example I-151, N-(1-(4-(1H-pyrazolo[3,4-d]pyrimidin-4-yl)phenyl)-2-amino-2-oxoethyl)-4,5,6,7-tetrahydrobenzo[b]thiophene-2-carboxamide] stands 1000 to 10000 nM; under `CC(C)(C)c1ncc(C(=O)N[C@H]2CCCc3cc(-c4ccnc5[nH]ncc45)cnc32)s1` [Example I-152, (S)—N-(3-(1H-pyrazolo[3,4-b]pyridin-4-yl)-5,6,7,8-tetrahydroquinolin-8-yl)-2-(tert-butyl)thiazole-5-carboxamide], 1000 to 10000 nM.
With `Cc1cc(-c2ncnc3[nH]ccc23)cnc1CNC(=O)c1cc2c(s1)CCCC2` [Example I-153, N-((3-methyl-5-(7H-pyrrolo[2,3-d]pyrimidin-4-yl)pyridin-2-yl)methyl)-4,5,6,7-tetrahydrobenzo[b]thiophene-2-carboxamide] the figure was 10 to 99 nM; with `CC(C)(C)c1ccc(C(=O)NC2CCc3cc(-c4ncnc5[nH]ccc45)ccc32)cc1` (stereo not drawn) [Example I-154, N-(5-(7H-pyrrolo[2,3-d]pyrimidin-4-yl)-2,3-dihydro-1H-inden-1-yl)-4-(tert-butyl)benzamide], greater than 10000 nM; with `Cn1cc(-c2cc3c(-c4ccc5c(c4)CCCC5NC(=O)c4cnn(C(C)(C)C)c4)ncnc3[nH]2)cn1` (stereo not drawn) [Example I-156, 1-(tert-butyl)-N-(6-(6-(1-methyl-1H-pyrazol-4-yl)-7H-pyrrolo[2,3-d]pyrimidin-4-yl)-1,2,3,4-tetrahydronaphthalen-1-yl)-1H-pyrazole-4-carboxamide], less than 10 nM.
Consider `Cn1cc(-c2cc3c(-c4ccc5c(c4)CCCC5NC(=O)N4CCC(C(C)(C)C)C4)ncnc3[nH]2)cn1` (stereo not drawn) [Example I-157, 3-(tert-butyl)-N-(6-(6-(1-methyl-1H-pyrazol-4-yl)-7H-pyrrolo[2,3-d]pyrimidin-4-yl)-1,2,3,4-tetrahydronaphthalen-1-yl)pyrrolidine-1-carboxamide], for which the IC50 is less than 10 nM.
Regarding `CC(C)OC1CN(C(=O)NC2CCCc3cc(-c4ncnc5[nH]c(-c6cnn(C)c6)cc45)ccc32)C1` (stereo not drawn) [Example I-158, 3-isopropoxy-N-(6-(6-(1-methyl-1H-pyrazol-4-yl)-7H-pyrrolo[2,3-d]pyrimidin-4-yl)-1,2,3,4-tetrahydronaphthalen-1-yl)azetidine-1-carboxamide], the half-maximal inhibitory concentration (IC50) is less than 10 nM.
Under `Cn1cc(-c2cc3c(-c4ccc5c(c4)CCCC5NC(=O)N4CC(OC(C)(C)C)C4)ncnc3[nH]2)cn1` (stereo not drawn) [Example I-159, 3-(tert-butoxy)-N-(6-(6-(1-methyl-1H-pyrazol-4-yl)-7H-pyrrolo[2,3-d]pyrimidin-4-yl)-1,2,3,4-tetrahydronaphthalen-1-yl)azetidine-1-carboxamide] stands less than 10 nM; under `Cn1cc(-c2cc3c(-c4ccc5c(c4)CCCCC5NC(=O)c4cnn(C(C)(C)C)c4)ncnc3[nH]2)cn1` (stereo not drawn) [Example I-160, 1-(tert-butyl)-N-(2-(6-(1-methyl-1H-pyrazol-4-yl)-7H-pyrrolo[2,3-d]pyrimidin-4-yl)-6,7,8,9-tetrahydro-5H-benzo[7]annulen-5-yl)-1H-pyrazole-4-carboxamide], less than 10 nM.
Regarding `Cn1cc(-c2cc3c(-c4ccc5c(c4)CCCCC5NC(=O)c4cnc(C(C)(C)C)s4)ncnc3[nH]2)cn1` (stereo not drawn) [Example I-161, 2-(tert-butyl)-N-(2-(6-(1-methyl-1H-pyrazol-4-yl)-7H-pyrrolo[2,3-d]pyrimidin-4-yl)-6,7,8,9-tetrahydro-5H-benzo[7]annulen-5-yl)thiazole-5-carboxamide], the 50% inhibitory concentration (IC50) was less than 10 nM.
Consider `Cn1cc(-c2cc3c(-c4ccc5c(c4)CCCCC5NC(=O)N4CCC(C(C)(C)C)C4)ncnc3[nH]2)cn1` (stereo not drawn) [Example I-162, 3-(tert-butyl)-N-(2-(6-(1-methyl-1H-pyrazol-4-yl)-7H-pyrrolo[2,3-d]pyrimidin-4-yl)-6,7,8,9-tetrahydro-5H-benzo[7]annulen-5-yl)pyrrolidine-1-carboxamide], for which the IC50 was less than 10 nM.
Under `CC(C)OC1CN(C(=O)NC2CCCCc3cc(-c4ncnc5[nH]c(-c6cnn(C)c6)cc45)ccc32)C1` (stereo not drawn) [Example I-163, 3-isopropoxy-N-(2-(6-(1-methyl-1H-pyrazol-4-yl)-7H-pyrrolo[2,3-d]pyrimidin-4-yl)-6,7,8,9-tetrahydro-5H-benzo[7]annulen-5-yl)azetidine-1-carboxamide] stands less than 10 nM.

One may read the IC50 as the concentration that gives 50% inhibition.

The record behind these values is US10280169B2, “Biaryl bruton's tyrosine kinase inhibitors” (BIOGEN MA INC., priority 2013, dated 2019).
